Reference: patent US12673927B2, “Substituted aminothiazoles as DGKzeta inhibitors for immune activation” (Deutsches Krebsforschungszentrum, priority 2020, dated 2026)

Each compound was assayed against T1, human DGKζ (Homo sapiens, UniProt Q13574) (assay: Human DGKζ kinase activity inhibition assay (ADP-Glo)). Settings: recombinant full-length human DGKζ, 55 μM ATP, 7 μM 1,2-dioleoyl-sn-glycerol, 20 min at 22° C.; read-out: IC50 in vitro human DGKζ kinase activity inhibition assay.
T1 construct: made in house; host or cells: Sf9 insect cells, baculovirus
T1 sequence (Q13574 with tags, fused parts or gaps): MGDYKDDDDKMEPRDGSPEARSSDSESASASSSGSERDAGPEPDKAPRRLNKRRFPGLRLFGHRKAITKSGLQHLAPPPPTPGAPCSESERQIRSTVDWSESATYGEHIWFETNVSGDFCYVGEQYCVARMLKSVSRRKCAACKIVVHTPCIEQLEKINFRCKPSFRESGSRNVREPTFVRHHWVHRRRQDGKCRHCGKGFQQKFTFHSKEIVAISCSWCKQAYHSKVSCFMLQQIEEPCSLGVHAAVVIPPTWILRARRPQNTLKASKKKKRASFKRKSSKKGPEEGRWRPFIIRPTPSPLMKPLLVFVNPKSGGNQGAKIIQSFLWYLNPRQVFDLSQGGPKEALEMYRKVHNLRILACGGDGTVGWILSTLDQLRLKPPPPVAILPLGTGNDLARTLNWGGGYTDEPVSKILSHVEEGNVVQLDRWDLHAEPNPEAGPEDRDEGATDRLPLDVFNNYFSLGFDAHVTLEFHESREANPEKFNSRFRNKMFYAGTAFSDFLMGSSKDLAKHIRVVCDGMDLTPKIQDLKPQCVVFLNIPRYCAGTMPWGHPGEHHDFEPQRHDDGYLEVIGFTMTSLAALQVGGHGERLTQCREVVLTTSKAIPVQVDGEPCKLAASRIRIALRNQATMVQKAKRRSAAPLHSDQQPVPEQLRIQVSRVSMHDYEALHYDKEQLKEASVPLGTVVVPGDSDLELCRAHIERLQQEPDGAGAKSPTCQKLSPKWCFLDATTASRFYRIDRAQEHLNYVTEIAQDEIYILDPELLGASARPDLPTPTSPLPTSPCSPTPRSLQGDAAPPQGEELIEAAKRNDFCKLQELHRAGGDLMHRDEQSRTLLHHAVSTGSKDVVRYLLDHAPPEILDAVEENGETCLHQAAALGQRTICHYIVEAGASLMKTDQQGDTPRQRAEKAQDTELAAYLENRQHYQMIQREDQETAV
Assay type: biochemical
Procedure: Human DGKζ Kinase Activity Inhibition Assay
Human diacylglycerol kinase zeta (DGKζ) inhibitory activity of compounds of the present invention was quantified employing the human DGKζ kinase activity assay as described in the following paragraphs. In essence, the enzyme activity was measured by quantification of the adenosine-di-phosphate (ADP) generated as a co-product of the enzyme reaction via the “ADP-Glo™ Kinase Assay” kit from the company Promega. This detection system works as follows: In a first step the adenosine-tri-phosphate (ATP) not consumed in the kinase reaction is quantitatively converted to cyclic adenosine-mono-phosphate (cAMP) employing an adenylate cyclase (“ADP-Glo-reagent”), then the adenylate cyclase is stopped and the ADP generated in the kinase reaction is converted to ATP, which subsequently generates in a luciferase-based reaction a glow-luminescence signal (“Kinase Detection Reagent”).
C-terminally FLAG-tagged, recombinant full-length human DGKζ (inhouse expressed in baculovirus infected insect cells, purified using anti-Flag pulldown and size exclusion chromatography) was used as enzyme. As an alternative, commercially available enzyme by Carnabio can be used. As substrate for the kinase, 1,2-dioleoyl-sn-glycerol, reconstituted in octyl-β-D-glucopyranoside micelles, was used. […] Subsequently, 22.55 volumes of a 510 mM solution of octyl-β-D-glucopyranoside (Sigma-Aldrich, Cat. #08001-10G) in 50 mM MOPS buffer (pH 7.4) were added, and the mixture was sonicated in an ultrasonic bath for 20 s. Then 35 volumes of 50 mM MOPS buffer (pH 7.4) were added to yield a solution of 0.28 mM 1,2 dioleoyl-sn-glycerol and 200 mM octyl-β-D-glucopyranoside, which was aliquoted, flash-frozen in liquid nitrogen, and stored at −20° C. until use.
For the assay 50 nl of a 100-fold concentrated solution of the test compound in dimethyl sulfoxide (DMSO, Sigma) was pipetted into either a white 1536-well or a white low-volume 384-well microtiter plate (both Greiner Bio-One, Frickenhausen, Germany). […] The concentration of DGKζ was adjusted depending of the activity of the enzyme lot and was chosen appropriate to have the assay in the linear range, a typical concentration is about 0.1 nM. The reaction was stopped by the addition of 2.5 μL of “ADP-Glo-reagent” (1 to 1.5 diluted with water) and the resulting mixture was incubated at 22° C. for 1 h to convert the ATP not consumed in the kinase reaction completely to cAMP. Subsequently 2.5 μl of the “kinase detection reagent” (1.2 fold more concentrated than recommended by the producer) were added, the resulting mixture was incubated at 22° C. for 1 h and then the luminescence measured with a suitable measurement instrument (e.g. Viewlux™ from Perkin-Elmer). The amount of emitted light was taken as a measure for the amount of ADP generated and thereby for the activity of the DGKζ.
The data were normalised (enzyme reaction without inhibitor=0% inhibition, all other assay components but no enzyme=100% inhibition).

**Q.** With `Cc1nc(N(c2ccc(F)cc2)C(C)C(N)=O)sc1C(=O)c1ccc(OC(F)F)cc1` (racemic) [Example 54] as the compound, how does the IC50 read?
**A.** The IC50 was 20.7 nM.

**Q.** `NC(=O)CN(c1ccc(F)cc1)c1nc(N)c(C(=O)c2ccccc2)s1` (racemic) [Example 71] was tested. Which IC50 did it give?
**A.** Its IC50 is 2310 nM.

**Q.** Which IC50 does the source give for `Cc1ccc(C(=O)c2sc(N(CC(N)=O)c3ccc(F)cc3)nc2N)cc1` (racemic) [Example 72] here?
**A.** The IC50 was 985 nM.

**Q.** With `CC(C(N)=O)N(c1ccc(F)cc1)c1nc(N)c(C(=O)c2ccc(C#N)c(F)c2)s1` (single isomer, unassigned) [Example 21.2, 2-(N-[4-amino-5-(4-cyano-3-fluoro-benzoyl)thiazol-2-yl]-4-fluoro-anilino)propanamide] as the compound, how does the IC50 read?
**A.** The IC50 was 51 nM.

**Q.** For `CC(C(N)=O)N(c1ccc(F)cc1)c1nc(N)c(C(=O)c2ccc(Cl)cc2)s1` (single isomer, unassigned) [Example 38.2, 2-(N-[4-amino-5-(4-chlorobenzoyl)thiazol-2-yl]-4-fluoro-anilino)propanamide], which IC50 is on record?
**A.** The IC50 was 7.37 nM.

**Q.** How did the IC50 turn out when `CC(C(N)=O)N(c1ccc(F)c(F)c1)c1nc(N)c(C(=O)c2ccc(OC(F)F)cc2)s1` (single isomer, unassigned) [Example 49.1, 2-(N-[4-amino-5-[4-(difluoromethoxy)benzoyl]thiazol-2-yl]-3,4-difluoro-anilino)propanamide] was run?
**A.** The IC50 was 1030 nM.

**Q.** For `COc1ccc(C(=O)c2sc(N(c3ccc(F)c(F)c3)C(C)C(N)=O)nc2N)cc1` (single isomer, unassigned) [Example 51.1, 2-(N-[4-amino-5-(4-methoxybenzoyl)thiazol-2-yl]-3,4-difluoro-anilino)propanamide], which IC50 is on record?
**A.** Its IC50 is 8.85 nM.

**Q.** How did the IC50 turn out when `COc1ccc(C(=O)c2sc(N(c3ccc(F)c(F)c3)C(C)C(N)=O)nc2N)cc1` (single isomer, unassigned) [Example 51.2, 2-(N-[4-amino-5-(4-methoxybenzoyl)thiazol-2-yl]-3,4-difluoro-anilino)propanamide] was run?
**A.** The IC50 was 872 nM.

**Q.** With `CC(C(N)=O)N(c1ccc(Cl)c(F)c1)c1nc(N)c(C(=O)c2ccncc2)s1` (single isomer, unassigned) [Example 56.2, 2-(N-[4-amino-5-(pyridine-4-carbonyl)thiazol-2-yl]-4-chloro-3-fluoro-anilino)propanamide] as the compound, how does the IC50 read?
**A.** Its IC50 is 7640 nM.

**Q.** How did the IC50 turn out when `CC(C(N)=O)N(c1cccc(F)c1)c1nc(N)c(C(=O)c2ccccc2)s1` (single isomer, unassigned) [Example 74.2, 2-(N-(4-amino-5-benzoyl-thiazol-2-yl)-3-fluoro-anilino)propanamide] was run?
**A.** Its IC50 is 81.4 nM.

**Q.** Which IC50 does the source give for `CC(C(N)=O)N(c1nc(N)c(C(=O)c2ccccc2)s1)c1ccccc1F` (single isomer, unassigned) [Example 75.2, 2-(N-(4-amino-5-benzoyl-thiazol-2-yl)-2-fluoro-anilino)propanamide] here?
**A.** Its IC50 is 214 nM.

**Q.** How did the IC50 turn out when `Cc1cccc(N(c2nc(N)c(C(=O)c3ccccc3)s2)C(C)C(N)=O)c1` (single isomer, unassigned) [Example 76.2, 2-(N-(4-amino-5-benzoyl-thiazol-2-yl)-3-methyl-anilino)propanamide] was run?
**A.** The IC50 was 11000 nM.

**Q.** How did the IC50 turn out when `CC(C(N)=O)N(c1ccc(F)cc1)c1nc(N)c(C(=O)c2ccc(OCC(=O)NCC34CC5CC(CC(C5)C3)C4)cc2)s1` (single isomer, unassigned) [Example 143, 2-(N-[5-[4-[2-(1-adamantylmethylamino)-2-oxo-ethoxy]benzoyl]-4-amino-thiazol-2-yl]-4-fluoro-anilino)propanamide] was run?
**A.** The IC50 was 12.7 nM.

**Q.** Which IC50 does the source give for `CC(C(N)=O)N(c1ccc(F)cc1)c1nc(N)c(C(=O)c2ccc(OCC(=O)NCCC34CC5CC(CC(C5)C3)C4)cc2)s1` (single isomer, unassigned) [Example 144] here?
**A.** Its IC50 is 8.79 nM.

**Q.** How did the IC50 turn out when `CC(C(N)=O)N(c1ccc(F)cc1)c1nc(N)c(C(=O)c2ccc(OCC(=O)Nc3ccc(Cl)cc3)cc2)s1` (single isomer, unassigned) [Example 145, 2-(N-[4-amino-5-[4-[2-(4-chloroanilino)-2-oxo-ethoxy]benzoyl]thiazol-2-yl]-4-fluoro-anilino)propanamide] was run?
**A.** Its IC50 is 2.66 nM.

**Q.** Which IC50 does the source give for `CC(C(N)=O)N(c1ccc(F)cc1)c1nc(N)c(C(=O)c2ccc(OCC(=O)Nc3ccc(C(N)=O)cc3)cc2)s1` (single isomer, unassigned) [Example 146, 4-([2-[4-[4-amino-2-(4-fluoro-N-[2-amino-1-methyl-2-oxo-ethyl]anilino)thiazole-5-carbonyl]phenoxy]acetyl]amino]benzamide] here?
**A.** Its IC50 is 21.6 nM.

**Q.** `CC(C(N)=O)N(c1ccc(F)cc1)c1nc(N)c(C(=O)c2ccc(OCC(=O)NCCN3CCCCC3)cc2)s1` (single isomer, unassigned) [Example 148, 2-(N-[4-amino-5-[4-[2-oxo-2-[2-(1-piperidyl)ethylamino]ethoxy]benzoyl]thiazol-2-yl]-4-fluoro-anilino)propanamide] was tested. Which IC50 did it give?
**A.** The IC50 was 76.4 nM.

**Q.** For `CC(C(N)=O)N(c1ccc(F)cc1)c1nc(N)c(C(=O)c2ccc(OCC(N)=O)cc2)s1` (single isomer, unassigned) [Example 149, 2-(N-[4-amino-5-[4-(2-amino-2-oxo-ethoxy)benzoyl]thiazol-2-yl]-4-fluoro-anilino)propanamide], which IC50 is on record?
**A.** Its IC50 is 405 nM.

**Q.** Which IC50 does the source give for `CNC(=O)COc1ccc(C(=O)c2sc(N(c3ccc(F)cc3)C(C)C(N)=O)nc2N)cc1` (single isomer, unassigned) [Example 150, 2-(N-[4-amino-5-[4-[2-(methylamino)-2-oxo-ethoxy]benzoyl]thiazol-2-yl]-4-fluoro-anilino)propanamide] here?
**A.** The IC50 was 372 nM.

**Q.** `CNC(=O)COc1ccc(C(=O)c2sc(N(c3ccc(F)cc3)C(C)C(N)=O)nc2N)cc1` (single isomer, unassigned) [Example 151, 2-(N-[4-amino-5-[4-[2-(methylamino)-2-oxo-ethoxy]benzoyl]thiazol-2-yl]-4-fluoro-anilino)propanamide] was tested. Which IC50 did it give?
**A.** The IC50 was 387 nM.

**Q.** With `CC(C)NC(=O)COc1ccc(C(=O)c2sc(N(c3ccc(F)cc3)C(C)C(N)=O)nc2N)cc1` (single isomer, unassigned) [Example 152, 2-(N-[4-amino-5-[4-[2-(isopropylamino)-2-oxo-ethoxy]benzoyl]thiazol-2-yl]-4-fluoro-anilino)propanamide] as the compound, how does the IC50 read?
**A.** The IC50 was 111 nM.

**Q.** `CC(C)NC(=O)COc1ccc(C(=O)c2sc(N(c3ccc(F)cc3)C(C)C(N)=O)nc2N)cc1` (single isomer, unassigned) [Example 153, 2-(N-[4-amino-5-[4-[2-(isopropylamino)-2-oxo-ethoxy]benzoyl]thiazol-2-yl]-4-fluoro-anilino)propanamide] was tested. Which IC50 did it give?
**A.** Its IC50 is 107 nM.

**Q.** `CC(C(N)=O)N(c1ccc(F)c(Cl)c1)c1nc(N)c(C(=O)c2ccncc2)s1` (single isomer, unassigned) [Example 160.1, 2-(N-[4-amino-5-(pyridine-4-carbonyl)thiazol-2-yl]-3-chloro-4-fluoro-anilino)propanamide] was tested. Which IC50 did it give?
**A.** The IC50 was 115 nM.

**Q.** How did the IC50 turn out when `CC(C(N)=O)N(c1ccc(F)c(F)c1)c1nc(N)c(C(=O)c2ccc(OC(F)F)nc2)s1` (single isomer, unassigned) [Example 163.1, 2-(N-[4-amino-5-[6-(difluoromethoxy)pyridine-3-carbonyl]thiazol-2-yl]-3,4-difluoro-anilino)propanamide] was run?
**A.** Its IC50 is 5 nM.

**Q.** Which IC50 does the source give for `CC(C(N)=O)N(c1ccc(Cl)c(F)c1)c1nc(N)c(C(=O)c2ccc(OC(F)F)nc2)s1` (single isomer, unassigned) [Example 164.2, 2-(N-[4-amino-5-[6-(difluoromethoxy)pyridine-3-carbonyl]thiazol-2-yl]-4-chloro-3-fluoro-anilino)propanamide] here?
**A.** Its IC50 is 944 nM.
